Results: patent publication US4272437A, “Antibacterial agents, and 4-thio azetidinone intermediates” (priority 1979, dated 1981)
Like-named read-outs stand apart in the source and are kept apart here.

How the values were obtained:
Str. pneumoniae A-9585 = test: MIC, tube dilution, Streptococcus pneumoniae A9585; format: cell-based; settings: Streptococcus pneumoniae, A9585, Str. pneumoniae A9585; overnight 37° C., Nutrient Broth; read-out: Minimum Inhibitory Concentration (M.I.C.)
Source text: (§1) Representative compounds of the present invention were subjected to in vitro antibiotic screening against a variety of microorganisms.

Str. pyogenes A-9604 = test: MIC, tube dilution, Streptococcus pyogenes A9604; format: cell-based; settings: Streptococcus pyogenes, A9604, Str. pyogenes A9604; overnight 37° C., Nutrient Broth; read-out: Minimum Inhibitory Concentration (M.I.C.)
Source text: as §1

Staph. aureus A-9537 = test: MIC, tube dilution, Staphylococcus aureus A9537; format: cell-based; settings: Staphylococcus aureus, A9537, Staph. aureus A9537; overnight 37° C., Nutrient Broth; read-out: Minimum Inhibitory Concentration (M.I.C.)
Source text: as §1

[1] = test system: Staph. aureus A-9537 and 50% serum; test: MIC, tube dilution, Staph. aureus A9537 + 50% serum; format: cell-based, Staphylococcus aureus; settings: Staphylococcus aureus, overnight 37° C., read-out: Minimum Inhibitory Concentration (M.I.C.)
Source text: as §1

[2] = test system: Staph. aureus (Pen-Res) A-9606; test: MIC, tube dilution, Staphylococcus aureus A9606 (Pen-Res); format: cell-based; settings: Staphylococcus aureus, overnight 37° C.
Source text: as §1

[3] = test system: Staph. aureus (Meth-Res) A-15097; test: MIC, tube dilution, Staphylococcus aureus A15097 (Meth-Res); format: cell-based; settings: Staphylococcus aureus, overnight 37° C.
Source text: as §1

Str. faecalis A-20688 = test: MIC, tube dilution, Streptococcus faecalis A20688; format: cell-based; settings: Enterococcus faecalis, A20688, Str. faecalis A20688; overnight 37° C.; read-out: Minimum Inhibitory Concentration (M.I.C.)
Source text: as §1

E. coli A-15119 = test: MIC, tube dilution, Escherichia coli A15119; format: cell-based; settings: Escherichia coli, A15119, E. coli A15119; overnight 37° C.; read-out: Minimum Inhibitory Concentration (M.I.C.)
Source text: as §1

E. coli A-20341-1 = test: MIC, tube dilution, Escherichia coli A20341-1; format: cell-based
Source text: as §1

K. pneumoniae A-15130 = test: MIC, tube dilution, Klebsiella pneumoniae A15130; format: cell-based; settings: Klebsiella pneumoniae, A15130, K. pneumoniae A15130; overnight 37° C.; read-out: Minimum Inhibitory Concentration (M.I.C.)
Source text: as §1

[4] = test system: Klebsiella species A20468; test: MIC, tube dilution, Klebsiella species A20468; format: cell-based; settings: Klebsiella species (K. pneumoniae) A20468; overnight 37° C.; read-out: Minimum Inhibitory Concentration (M.I.C.)
Source text: as §1

Pr. mirabilis A-9900 = test: MIC, tube dilution, Proteus mirabilis A9900; format: cell-based; settings: Proteus mirabilis, A9900, Proteus mirabilis A9900; overnight 37° C.; read-out: Minimum Inhibitory Concentration (M.I.C.)
Source text: as §1

Pr. vulgaris A-9716 = test: MIC, tube dilution, Proteus vulgaris / Proteus mirabilis A9716; format: cell-based, Proteus vulgaris (name changed to Proteus mirabilis); settings: Proteus vulgaris, overnight 37° C.
Source text: as §1

Pr. morganii A-15153 = test: MIC, tube dilution, Proteus morganii A15153; format: cell-based; settings: Morganella morganii, A15153, Proteus morganii A15153; overnight 37° C.; read-out: Minimum Inhibitory Concentration (M.I.C.)
Source text: as §1

[5] = test system: Providencia stuartii A21205; test: MIC, tube dilution, Providencia stuartii (Pr. rettgeri) A21205; format: cell-based; settings: Providencia stuartii
Source text: as §1

Ser. marcescens A-20019 = test: MIC, tube dilution, Serratia marcescens A20019; format: cell-based; settings: Serratia marcescens, A20019, Serratia marcescens A20019; overnight 37° C.; read-out: Minimum Inhibitory Concentration (M.I.C.)
Source text: as §1

Ent. cloacae A-9659 = test: MIC, tube dilution, Enterobacter cloacae A9659; format: cell-based; settings: Enterobacter cloacae, A9659, Enterobacter cloacae A9659; overnight 37° C.; read-out: Minimum Inhibitory Concentration (M.I.C.)
Source text: as §1

Ent. cloacae A-9656 = test: MIC, tube dilution, Enterobacter cloacae A9656; format: cell-based; settings: overnight 37° C., read-out: Minimum Inhibitory Concentration (M.I.C.)
Source text: as §1

Ps. aeruginosa A-9843A = test: MIC, tube dilution, Pseudomonas aeruginosa A9843A; format: cell-based; settings: Pseudomonas aeruginosa, A9843A, read-out: Minimum Inhibitory Concentration (M.I.C.), Pseudomonas aeruginosa A9843A; overnight 37° C.
Source text: as §1

Ps. aeruginosa A-21213 = test: MIC, tube dilution, Pseudomonas aeruginosa A21213; format: cell-based; settings: Pseudomonas aeruginosa A21213; overnight 37° C.; read-out: Minimum Inhibitory Concentration (M.I.C.)
Source text: as §1

[6] = Escherichia coli, A203411; E. coli A20341-1; overnight 37° C.; read-out: Minimum Inhibitory Concentration (M.I.C.)
[7] = Staph. aureus A9606 (Pen-Res), read-out: Minimum Inhibitory Concentration (M.I.C.)
[8] = Staph. aureus A15097 (Meth-Res), read-out: Minimum Inhibitory Concentration (M.I.C.)
[9] = A9716, Proteus vulgaris / Proteus mirabilis A9716, read-out: Minimum Inhibitory Concentration (M.I.C.)
[10] = A21205, Providencia stuartii (Pr. rettgeri) A21205, overnight 37° C., read-out: Minimum Inhibitory Concentration (M.I.C.)

| Structure (SMILES) | MIC (Str. pneumoniae A-9585) | MIC (Str. pyogenes A-9604) | MIC (Staph. aureus A-9537) | MIC [1] | MIC (Str. faecalis A-20688) | MIC (E. coli A-15119) | MIC (E. coli A-20341-1; [6]) | MIC (K. pneumoniae A-15130) | MIC [4] | MIC (Pr. mirabilis A-9900) | MIC (Pr. morganii A-15153) | MIC (Ser. marcescens A-20019) | MIC (Ent. cloacae A-9659) | MIC (Ent. cloacae A-9656; Enterobacter cloacae A9656) | MIC (Ps. aeruginosa A-9843A) | MIC (Ps. aeruginosa A-21213) | MIC [2, 7] | MIC [3, 8] | MIC (Pr. vulgaris A-9716; [9]) | MIC [5, 10] | other results |
| --- | --- | --- | --- | --- | --- | --- | --- | --- | --- | --- | --- | --- | --- | --- | --- | --- | --- | --- | --- | --- | --- |
| COC1=C(C(=O)[O-])N2C(=O)C[C@H]2S1.[Na+] [Preparation 17, Sodium 2-Methoxypenem-3-carboxylate] | > 2 µg/mL | > 2 µg/mL | > 2 µg/mL | > 32 µg/mL | > 63 µg/mL | > 63 µg/mL | > 63 µg/mL | > 63 µg/mL | > 63 µg/mL | > 63 µg/mL | > 63 µg/mL | > 63 µg/mL | > 63 µg/mL | > 63 µg/mL | > 63 µg/mL | > 63 µg/mL | – | – | – | – | MIC ([2]; read-out: Minimum Inhibitory Concentration (M.I.C.), Staph. aureus A9606 (Pen-Res)): > 63 µg/mL; MIC ([3]; read-out: Minimum Inhibitory Concentration (M.I.C.), Staph. aureus A15097 (Meth-Res)): > 63 µg/mL; MIC (Pr. vulgaris A-9716; A9716, read-out: Minimum Inhibitory Concentration (M.I.C.), Proteus vulgaris / Proteus mirabilis A9716): > 63 µg/mL; MIC ([5]; A21205, read-out: Minimum Inhibitory Concentration (M.I.C.)): > 63 µg/mL |
| CSC1C(=O)N2C(C(=O)O)=C(C)SC12 (stereo not drawn) [Example 5, Potassium 6-Thiomethyl-2-methylpenem-3-carboxylate] | 0.5 µg/mL | 4 µg/mL | 4 µg/mL | > 63 µg/mL | 125 µg/mL | 63 µg/mL | 125 µg/mL | 63 µg/mL | > 125 µg/mL | 63 µg/mL | 125 µg/mL | 63 µg/mL | 125 µg/mL | 125 µg/mL | > 125 µg/mL | > 125 µg/mL | 9 µg/mL | 63 µg/mL | 32 µg/mL | 32 µg/mL | – |
| O=C(O)CCC1=C(C(=O)O)N2C(=O)CC2S1 (stereo not drawn) [Preparation 11, Disodium 2-(2-carboxyethyl)penem-3-carboxylate] | 0.13 µg/mL | 4 µg/mL | 16 µg/mL | > 63 µg/mL | 125 µg/mL | 16 µg/mL | – | 63 µg/mL | > 125 µg/mL | 4 µg/mL | 63 µg/mL | 4 µg/mL | 63 µg/mL | – | > 125 µg/mL | > 125 µg/mL | 32 µg/mL | 63 µg/mL | 4 µg/mL | 1 µg/mL | MIC (E. coli A-20341-1; Escherichia coli, A203411, E. coli A20341-1; overnight 37° C.; read-out: Minimum Inhibitory Concentration (M.I.C.)): 63 µg/mL; MIC (Ent. cloacae A-9656; Enterobacter cloacae, A9656, Enterobacter cloacae A9656): 63 µg/mL |
